US10278942B2 (PELOTON THERAPEUTICS, INC., priority 2015, dated 2019)
Where two headings read alike, the source gives them in different places.

Assays:
[1] = tested on: rats with hypoxia/semaxanib induced pulmonary arterial hypertension; test: Prevention of PAH by a HIF-2α inhibitor (Example 36)
Description: Two rats not exposed to either semaxanib or hypoxia served as hypertrophic sentinels for this study. Rats received a single injection of semaxanib (200 mg/kg, s.c.) on the same day as initiation of test article dosing and introduction to the hypoxic chamber. Rats were kept in hypoxic conditions for the duration of this study. On the twenty-eighth day of test article dosing, the rats were anesthetized with ketamine/xylazine for terminal monitoring of pulmonary and systemic arterial pressures along with heart rate. […]

[2] = tested on: rats with hypoxia/semaxanib induced pulmonary arterial hypertension; test: Effect of HIF-2α inhibition in a model of active PAH (Example 37, interventional)
Excerpt: Rats were kept in hypoxic conditions for the duration of this study. On the fourteenth day of test article dosing, the rats were anesthetized with ketamine/xylazine for terminal monitoring of pulmonary and systemic arterial pressures along with heart rate. […]

[3] = molecular target: T1, HIF-2α HIS TAG-PASB Domain (Homo sapiens, UniProt Q99814); test: HIF-2α Scintillation Proximity Assay (SPA); assay type: binding
T1 construct: 100 nM HIF-2α HIS TAG-PASB Domain
Outline: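 IC50 values rest on percent inhibition, where the sample signal is scaled between high and low controls. Wells contain about 100 μL: compound dispensed as 2 μL of DMSO solution, 88 μL protein-probe mix and 10 μL of beads.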

786-O cells = test: VEGF ELISA Assay; assay type: cell-based; details: Homo sapiens, 786-0
Description: Each concentration was plated in duplicate. About 20 hours later, medium was removed by suction and each well was supplied with 180 μL of growth medium. About 20 μl freshly-made 10× compound stocks were added to each well. […] The EC50 was calculated by GraphPad Prism using the dose-response-inhibition (four parameter) equation. The cell-seeded plate was then subjected to CellTiter-Glo luminescence cell viability assay (Promega) by adding 50 μL of Celltiter Glo reagent into each well and shaking the plate for 8 minutes at 550 rpm (Thermomixer R, Eppendorf) then the luminescence signal immediately read in a plate reader (3 second delay, 0.5 second/well integration time, Synergy 2 multi Detection Microplate reader).

786-O-Hif-Luc cells = test: Luciferase Assay (HIF responsive elements reporter); details: read-out: Mean Luciferase EC50 (nM), 786-O-Hif-Luc cells
Description: A pool of infected cells were then selected against 2 μg/mL of puromycin (P8833, Sigma) for 10 days followed by limited dilution to select single clones. […] Each concentration was tested in triplicate. After about 24 hours, luciferase activity was determined using ONE-Glo Luciferase Assay Reagent (E6110, Promega) following the manufacturer's recommended procedure. EC50 were calculated using Dotmatics software.

[4] = prevention, 60/day bid oral 28 days, Mean ± SEM
[5] = prevention, Group 4, 30 mg/kg BID
[6] = active PAH, 60/day bid oral Days 15 to 28, Mean ± SEM
[7] = active PAH, Group 4, 60 mg/kg/day 14 days
[8] = read-out: Scintillation Proximity Assay IC50

T1 sequence (Q99814 240-350 limits assumed): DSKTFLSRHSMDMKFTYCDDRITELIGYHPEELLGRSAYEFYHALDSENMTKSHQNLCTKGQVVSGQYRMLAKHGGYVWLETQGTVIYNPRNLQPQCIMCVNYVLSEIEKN

## CCCc1nn(C)c2c(=O)[nH]c(-c3cc(S(=O)(=O)N4CCN(C)CC4)ccc3OCC)nc12 [sildenafil]
[1]; Fulton's Index, prevention, 60/day bid oral 28 days, Mean ± SEM
  RV/LV + S: 0.52 ± 0.04
[1]; [4]
  Heart Wt: 1.23 ± 0.03 g
  LV Wt: 0.71 ± 0.02 g
  Lung Wt: 2.39 ± 0.07 g
  MAP: 92 ± 2 mm Hg
  Mean PAP: 38 ± 3 mm Hg
  RV Wt: 0.36 ± 0.03 g
  RV/BW: 1.12 ± 0.10
  Systolic PAP: 55 ± 5 mm Hg
[1]; [5]
  mean percentages of completely muscularized arterioles: 58.7%
  mean percentages of non-muscularized arterioles: 1.1%
  mean percentages of partially muscularized arterioles: 40.2%
[1]; prevention, Group 4, 30 mg/kg BID, lung histopathology
  Group mean scores for smooth muscle hypertrophy: 3.4
[1]; prevention, histopathology evaluation and arteriole counts
  pulmonary arteriolar smooth muscle hypertrophy compared to vehicle: slight decrease
[1]; prevention, sildenafil group
  protection versus vehicle (systolic pulmonary arterial pressure): showed protection versus vehicle
[1]; rat, in vivo
  heart rate compared to vehicle: No notable differences
[1]; rat, in vivo, po
  HR: 289 ± 11 bpm
[2]; [6]
  Heart Wt: 1.25 g
  LV Wt: 0.75 g
  LW/BW: 6.68
  Lung Wt: 2.36 g
  MAP: 93 mm Hg
  Mean PAP: 36 mm Hg
  RV Wt: 0.35 g
  RV/BW: 0.98
  RV/LV + S: 0.46
  Systolic PAP: 56 mm Hg
[2]; [7]
  Group mean scores for smooth muscle hypertrophy: 2.6
  mean percentages of completely muscularized arterioles: 47.2%
  mean percentages of non-muscularized arterioles: 1.1%
  mean percentages of partially muscularized arterioles: 51.7%
[2]; active PAH, compared to vehicle
  pulmonary hypertrophy: reductions in pulmonary hypertrophy
[2]; active PAH, sildenafil 30 mg/kg twice daily, p<0.05
  reduction in RV/BW ratio: 21%
[2]; rat, in vivo
  heart rate compared to vehicle: No substantive differences
[2]; rat, in vivo, po
  Body Weight: 0.35 kg
  HR: 298 bpm

## O=S(=O)(c1ccc(OC2CCC2)c2c1[C@H](O)C(F)(F)C2)C(F)(F)F [Compound 657]
[3]; [8]
  IC50: < 50 nM
786-O cells
  EC50: < 50 nM
786-O-Hif-Luc cells
  EC50: < 50 nM

## O=S(=O)(c1ccc(Oc2cc(F)cc(F)c2)c2c1[C@H](O)CC2)C(F)(F)F [Compound 55]
[3]; [8]
  IC50: < 50 nM
786-O cells
  EC50: < 50 nM
786-O-Hif-Luc cells
  EC50: < 50 nM

## O=S(=O)(c1ccc(OCC2COC2)c2c1[C@H](O)C(F)(F)C2)C(F)(F)F [Compound 713]
[3]; [8]
  IC50: < 50 nM
786-O cells
  EC50: 50 to 249 nM
786-O-Hif-Luc cells
  EC50: 50 to 249 nM

## N#Cc1c(S(=O)(=O)C(F)(F)F)ccc(Oc2cc(F)cc(Cl)c2)c1Br [Compound 98]
[3]; [8]
  IC50: < 50 nM
786-O cells
  EC50: > 1000 nM
786-O-Hif-Luc cells
  EC50: > 1000 nM

## O=S(=O)(c1ccc(Oc2ccc(F)c(F)c2)c2c1[C@H](O)C(F)(F)C2)C(F)(F)F [Compound 233]
[3]; [8]
  IC50: < 50 nM
786-O cells
  EC50: < 50 nM
786-O-Hif-Luc cells
  EC50: < 50 nM

## O=S(=O)(c1ccc(CCO)c2c1C(O)CC2)C(F)(F)F (stereo not drawn) [Compound 495, 4-(2-hydroxyethyl)-7-((trifluoromethyl)sulfonyl)-2,3-dihydro-1H-inden-1-ol]
[3]; [8]
  IC50: > 1000 nM
786-O cells
  EC50: 250 to 1000 nM
786-O-Hif-Luc cells
  EC50: > 1000 nM

## O=S(=O)(CF)c1ccc(Oc2cc(F)cc(F)c2)c2c1[C@H](O)CC2 [Compound 60]
[3]; [8]
  IC50: < 50 nM
786-O cells
  EC50: < 50 nM
786-O-Hif-Luc cells
  EC50: 50 to 249 nM

## CC(C)Oc1ccc(S(=O)(=O)C(F)(F)F)c2c1CC(F)(F)[C@H]2O [Compound 654]
[3]; [8]
  IC50: < 50 nM
786-O cells
  EC50: < 50 nM
786-O-Hif-Luc cells
  EC50: < 50 nM

## N#CC1(COc2ccc(S(=O)(=O)C(F)(F)F)c3c2CC(F)(F)[C@H]3O)CC1 [Compound 658]
[3]; [8]
  IC50: < 50 nM
786-O cells
  EC50: < 50 nM
786-O-Hif-Luc cells
  EC50: < 50 nM

## O=S(=O)(c1ccc(Oc2cc(F)cc(F)c2)c2c1[C@H](O)CC2)C(F)F [Compound 2]
[3]; [8]
  IC50: < 50 nM
786-O cells
  EC50: 50 to 249 nM
786-O-Hif-Luc cells
  EC50: 50 to 249 nM

## N#Cc1cc(F)cc(Oc2ccc(S(=O)(=O)C(F)(F)F)c3c2CC(F)(F)[C@H]3O)c1 [Compound 185]
[3]; Scintillation Proximity Assay IC50 (nM)
  IC50: < 50 nM
786-O cells
  EC50: < 50 nM
786-O-Hif-Luc cells
  EC50: < 50 nM

## CS(=O)(=NC#N)c1ccc(Oc2cc(F)cc(F)c2)c2c1C(O)C(F)(F)C2 (stereo not drawn) [Compound 191]
[3]; [8]
  IC50: < 50 nM
786-O cells
  EC50: 50 to 249 nM
786-O-Hif-Luc cells
  EC50: 50 to 249 nM

## O[C@H]1c2c(C(F)(F)F)ccc(OCC(F)F)c2CC1(F)F [Compound 579]
[3]; [8]
  IC50: < 50 nM
786-O cells
  EC50: < 50 nM
786-O-Hif-Luc cells
  EC50: < 50 nM

## O=S(=O)(CF)c1ccc(OC2CC(F)(F)C2)c2c1[C@H](O)C(F)(F)[C@@H]2F [Compound 576, (1S,3R)-4-(3,3-difluorocyclobutoxy)-2,2,3-trifluoro-7-((fluoromethyl)sulfonyl)-2,3-dihydro-1H-inden-1-ol]
[3]; [8]
  IC50: < 50 nM
786-O cells
  EC50: 50 to 249 nM
786-O-Hif-Luc cells
  EC50: < 50 nM

## O=[N+]([O-])c1c(Oc2cc(F)cc(Cl)c2)ccc(C(F)(F)F)c1Cl [Compound 203]
[3]; [8]
  IC50: 50 to 249 nM
786-O cells
  EC50: 250 to 1000 nM
786-O-Hif-Luc cells
  EC50: 250 to 1000 nM

## COC[C@@H](C)Oc1ccc(S(=O)(=O)C(F)(F)F)c2c1CC(F)(F)[C@H]2O [Compound 659]
[3]; [8]
  IC50: < 50 nM
786-O cells
  EC50: 50 to 249 nM
786-O-Hif-Luc cells
  EC50: 50 to 249 nM

## O=S(=O)(c1ccc(OCC2CC2)c2c1[C@H](O)C(F)(F)C2)C(F)(F)F [Compound 656]
[3]; [8]
  IC50: < 50 nM
786-O cells
  EC50: < 50 nM
786-O-Hif-Luc cells
  EC50: < 50 nM
